{"source": "patent US20030144271A1", "about": "“Methods for the treatment of substance abuse” (priority 2000, published 2003)", "key": {"[1]": {"test_system": "alcohol / volatile inhalant dependent patients", "assay": "Open Alc/Inhalant therapeutic (N + A + CCB) drug dependence trial (Example 7, Table 2)", "assay_type": "in vivo, human", "conditions": "A666 × 3 mg/d; for Key Parameters: Audit Score: score out of 40; for Key Parameters: Abstinence / Key Parameters: Craving / Key Parameters: Relapse: scale 0-10", "description": "(v) Scoring of key parameters was based on questionaries completed by the subject. For the audit score, an initial base-line questionnaire preceding treatment and subsequently, a similar weekly questionnaire, following each week of treatment was conducted by the trial clinician and trial subject. The subject's answers were assigned a value and the score for all 10 questions totalled (out of 40). A total of 13+ is indicated as alcohol dependent, 8+ as a hazardous drinker and less than 8 a safe drinker, with 0 indicating abstinence. Levels of Craving, tendency to Relapse and degree of Abstinence were rated by the subject on a scale of 0-10, with 0,0 indicating absence of craving and relapse respectively, and 10 indicating total abstinence from alcohol and volatile inhalant.\nTwo patients were treated in an open trial with a daily dose of naltrexone, acamprosate and verapamil. Key parameters were evaluated as per Example 6. The results are presented in Table 2, depicting treatment duration, patient characteristics, key parameters and improved parameters and side-effects."}, "[2]": {"test_system": "detoxified opiate subjects", "assay": "Double-blind placebo-controlled cross-over trial in detoxified opiate subjects (Table 1A, comparative)", "assay_type": "in vivo, human", "conditions": "weekly; for Abstinence: scale 0-10, 10 = total abstinence", "description": "(ii) To permit their optimal comparison by the same test subject, treatments A & C were both given for the same and longest length of time available before the trial was terminated. […] The actual drug components of treatments A, B and C for each trial subject, and the duration of each treatment are also shown in Table 1 in each case.\n(v) Scoring of key parameters was based on questionaries completed by the subject. […] The subject's answers were assigned a value and the score for all 10 questions totalled (out of 40). A total of 13+ is indicated as alcohol dependent, 8+ as a hazardous drinker and less than 8 a safe drinker, with 0 indicating abstinence. Levels of Craving, tendency to Relapse and degree of Abstinence were rated by the subject on a scale of 0-10, with 0,0 indicating absence of craving and relapse respectively, and 10 indicating total abstinence from alcohol and volatile inhalant.\n[…] […] However, many opiate (or other substance) addicts also have a secondary addiction to alcohol or use alcohol excessively when they are unable to obtain the opiate of addiction. The present invention can also be used to treat such multi-substance addicted subjects."}, "[3]": {"conditions": "in vivo; cited from earlier work"}, "[4]": {"test_system": "detoxified alcoholic patients", "assay": "N-of-1 double-blind placebo-controlled cross-over clinical trial in detoxified alcoholic patients (Example 6, Table 1)", "assay_type": "in vivo, human", "conditions": "5 mg, in two subjects", "description": "The patient characteristics, their randomised active and control treatments and their outcomes, and the key and ancillary parameters on which the progressive comparative weekly safeties and efficacies of the active and control treatments were determined for each of the 6 double-blind trial subjects are all shown in Table 1.\n(i) Each trial subject received sequentially 3 different but operationally-related individual treatments, each on an oral once daily basis, labelled, for convenience, A (which may randomly be an active or control treatment), B (wash-out) and C (which may also randomly be a control or […])\n(ii) To permit their optimal comparison by the same test subject, treatments A & C were both given for the same and longest length of time available before the trial was terminated. Patient and clinician bias in interpretation was minimised or excluded by giving these treatments on a randomised double-blind basis which ensured that neither knew if the active or control treatment was given first or last. Thus sometimes, labelled treatment A or C was the active or control treatment and vice versa. The actual drug components of treatments A, B and C for each trial subject, and the duration of each treatment are also shown in Table 1 in each case. […]"}}, "note": "Several values for one entry are separate records, joined by “and”; a condition that tells them apart may be missing. Equal entries are not always repeated. Entries after “also recorded” stand apart in the source; their conditions may differ."}
{"smiles": "CC(=O)NCCCS(=O)(=O)O", "note": "[A666 × 3]", "values": [{"measurement": "Key Parameters: Audit Score", "setting": "[1]; subject 1 (Alc 20+ Units/d), 01/07/00", "value": 37}, {"measurement": "Improved (1) Ancillary Parameters: Energy", "setting": "[1]; subject 1, 01/07/00", "value": 0}, {"measurement": "Improved (1) Ancillary Parameters: In-Control", "setting": "[1]; subject 1, 01/07/00", "value": 0}, {"measurement": "Improved (1) Ancillary Parameters: Thinking", "setting": "[1]; subject 1, 01/07/00", "value": 0}, {"measurement": "Patient's View", "setting": "[1]; subject 1, 01/07/00", "value": 0}, {"measurement": "Side-effects", "setting": "[1]; subject 1, 01/07/00", "value": "Nil"}, {"measurement": "Key Parameters: Abstinence", "setting": "[1]; subject 1, 01/07/00", "value": 0}, {"measurement": "Key Parameters: Craving", "setting": "[1]; subject 1, 01/07/00", "value": 8}, {"measurement": "Key Parameters: Relapse", "setting": "[1]; subject 1, 01/07/00", "value": 10}, {"measurement": "Improved (1) Ancillary Parameters: Energy", "setting": "[1]; subject 1, 09/07/00", "value": 0}, {"measurement": "Improved (1) Ancillary Parameters: Thinking", "setting": "[1]; subject 1, 09/07/00", "value": 0}, {"measurement": "Patient's View", "setting": "[1]; subject 1, 09/07/00", "value": "Progress+"}, {"measurement": "Side-effects", "setting": "[1]; subject 1, 09/07/00", "value": "Nil"}, {"measurement": "Key Parameters: Abstinence", "setting": "[1]; subject 1, 09/07/00", "value": 1}, {"measurement": "Key Parameters: Craving", "setting": "[1]; subject 1, 09/07/00", "value": 7}, {"measurement": "Key Parameters: Relapse", "setting": "[1]; subject 1, 09/07/00", "value": 8}, {"measurement": "Key Parameters: Audit Score", "setting": "[1]; subject 1, 09/07/00", "value": 37}]}
{"smiles": "O=C1CC[C@@]2(O)[C@H]3Cc4ccc(O)c5c4[C@@]2(CCN3CC2CC2)[C@H]1O5", "note": "[N25 + Pl]", "values": [{"measurement": "Relapse", "setting": "[2]; scale 0-10, 0 = absence, listed as N5 + Pl", "value": 0}, {"measurement": "Abstinence", "setting": "[2]; listed as N5 + Pl", "value": 10}, {"measurement": "Patient's View", "setting": "[2]", "value": "Progress 0"}, {"measurement": "Patient's View", "setting": "[2]; assessment date 03/11/00", "value": "Progress +/−"}, {"measurement": "Patient's View", "setting": "[2]; assessment date 15/11/00", "value": "Progress +"}, {"measurement": "Patient's View", "setting": "[2]; listed as N5 + Pl", "value": "Progress ++"}, {"measurement": "Patient's View", "setting": "[2]; listed as NAll25 + Pl, assessment date 03/11/00", "value": "Progress+/−"}, {"measurement": "Patient's View", "setting": "[2]; listed as NAll25 + Pl, assessment date 15/11/00", "value": "Progress+"}]}
{"smiles": "O=C1CC[C@@]2(O)[C@H]3Cc4ccc(O)c5c4[C@@]2(CCN3CC2CC2)[C@H]1O5", "note": "[N25, Naltrexone]", "values": [{"measurement": "Abstinence", "setting": "[2]", "value": "10 and 8"}, {"measurement": "Patient's View", "setting": "[2]", "value": "Progress+; also recorded: Progress++; also recorded: Progress+++"}]}
{"smiles": "CCOC(=O)C1=C(COCCN)NC(C)=C(C(=O)OC)C1c1ccccc1Cl", "note": "(centres unmarked) [amlodipine]", "values": [{"measurement": "time to reach a plateau plasma concentration", "setting": "[3]", "value": "5 to 10", "unit": "days"}, {"measurement": "Side-effects of the administered dose", "setting": "[4]", "value": "a number of initial transient side-effects"}]}
